Data taken from patent US20230049952A1, “METHODS AND COMPOUNDS FOR RESTORING MUTANT P53 FUNCTION” (PMV Pharmaceuticals, Inc., priority 2020, published 2023).

System: p53 signaling pathway in MT373 tumors
Test: MT373 syngeneic sarcoma model: mouse p53 signaling pathway profiling panel
Assay type: in vivo
Settings: for Actb* mRNA (housekeeping or reference gene), Fold Increase Over Vehicle Control or Percent Reduction Compared to Vehicle Control (%) / B2m* mRNA (housekeeping or reference gene), Fold Increase Over Vehicle Control or Percent Reduction Compared to Vehicle Control (%) / Gapdh* mRNA (housekeeping or reference gene), Fold Increase Over Vehicle Control or Percent Reduction Compared to Vehicle Control (%) / Gusb* mRNA (housekeeping or reference gene), Fold Increase Over Vehicle Control or Percent Reduction Compared to Vehicle Control (%) / Hsp90ab1* mRNA (housekeeping or reference gene), Fold Increase Over Vehicle Control or Percent Reduction Compared to Vehicle Control (%) / MGDC* (housekeeping or reference gene), Fold Increase Over Vehicle Control or Percent Reduction Compared to Vehicle Control (%) / Trp63 mRNA, Fold Increase Over Vehicle Control or Percent Reduction Compared to Vehicle Control (%) / Trp73 mRNA, Fold Increase Over Vehicle Control or Percent Reduction Compared to Vehicle Control (%) / Wt1 mRNA, Fold Increase Over Vehicle Control or Percent Reduction Compared to Vehicle Control (%) / Zmat3 mRNA, Fold Increase Over Vehicle Control or Percent Reduction Compared to Vehicle Control (%): MT373 tumors

CCn1c(C#CCNc2ccccc2)cc2cc(CNC3CCN(C)CC3)ccc21 [Compound 1, 1-Anilino-3-{1-ethyl-5-[(1-methyl-4-piperidylamino)methyl]-1H-indol-2-yl}-2-propyne]
Il6 mRNA change (150 mg/kg BID×1, 24 h): 85.31% | Mdm2 mRNA increase (150 mg/kg BID×1, 24 h): 5.96 fold | Sesn2 mRNA increase (150 mg/kg BID×1, 24 h): 2.45 fold | Zmat3 mRNA increase (150 mg/kg BID×1, 24 h): 6.17 fold | Actb* mRNA (housekeeping or reference gene), Fold Increase Over Vehicle Control or Percent Reduction Compared to Vehicle Control (%) (75 mg/kg BIDx1, 8 h): 1.60 fold or % | B2m* mRNA (housekeeping or reference gene), Fold Increase Over Vehicle Control or Percent Reduction Compared to Vehicle Control (%) (75 mg/kg BIDx1, 8 h): 1.16 fold or % | Gapdh* mRNA (housekeeping or reference gene), Fold Increase Over Vehicle Control or Percent Reduction Compared to Vehicle Control (%) (75 mg/kg BIDx1, 8 h): 11.24 fold or % | Gusb* mRNA (housekeeping or reference gene), Fold Increase Over Vehicle Control or Percent Reduction Compared to Vehicle Control (%) (75 mg/kg BIDx1, 8 h): 1.12 fold or % | Hsp90ab1* mRNA (housekeeping or reference gene), Fold Increase Over Vehicle Control or Percent Reduction Compared to Vehicle Control (%) (75 mg/kg BIDx1, 8 h): 10.06 fold or % | MGDC* (housekeeping or reference gene), Fold Increase Over Vehicle Control or Percent Reduction Compared to Vehicle Control (%) (75 mg/kg BIDx1, 8 h): 1.79 fold or % | Trp63 mRNA, Fold Increase Over Vehicle Control or Percent Reduction Compared to Vehicle Control (%) (75 mg/kg BIDx1, 8 h): 3.58 fold or % | Trp73 mRNA, Fold Increase Over Vehicle Control or Percent Reduction Compared to Vehicle Control (%) (75 mg/kg BIDx1, 8 h): 16.09 fold or % | Wt1 mRNA, Fold Increase Over Vehicle Control or Percent Reduction Compared to Vehicle Control (%) (75 mg/kg BIDx1, 8 h): 28.78 fold or % | Zmat3 mRNA, Fold Increase Over Vehicle Control or Percent Reduction Compared to Vehicle Control (%) (75 mg/kg BIDx1, 8 h): 6.25 fold or % | Actb* mRNA (housekeeping or reference gene), Fold Increase Over Vehicle Control or Percent Reduction Compared to Vehicle Control (%) (75 mg/kg BIDx1, 24 h): 1.08 fold or % | B2m* mRNA (housekeeping or reference gene), Fold Increase Over Vehicle Control or Percent Reduction Compared to Vehicle Control (%) (75 mg/kg BIDx1, 24 h): 1.14 fold or % | Gapdh* mRNA (housekeeping or reference gene), Fold Increase Over Vehicle Control or Percent Reduction Compared to Vehicle Control (%) (75 mg/kg BIDx1, 24 h): 13.68 fold or % | Gusb* mRNA (housekeeping or reference gene), Fold Increase Over Vehicle Control or Percent Reduction Compared to Vehicle Control (%) (75 mg/kg BIDx1, 24 h): 1.25 fold or % | Hsp90ab1* mRNA (housekeeping or reference gene), Fold Increase Over Vehicle Control or Percent Reduction Compared to Vehicle Control (%) (75 mg/kg BIDx1, 24 h): 17.39 fold or % | MGDC* (housekeeping or reference gene), Fold Increase Over Vehicle Control or Percent Reduction Compared to Vehicle Control (%) (75 mg/kg BIDx1, 24 h): 1.27 fold or % | Trp63 mRNA, Fold Increase Over Vehicle Control or Percent Reduction Compared to Vehicle Control (%) (75 mg/kg BIDx1, 24 h): 1.58 fold or % | Trp73 mRNA, Fold Increase Over Vehicle Control or Percent Reduction Compared to Vehicle Control (%) (75 mg/kg BIDx1, 24 h): 1.01 fold or % | Wt1 mRNA, Fold Increase Over Vehicle Control or Percent Reduction Compared to Vehicle Control (%) (75 mg/kg BIDx1, 24 h): 21.25 fold or % | Zmat3 mRNA, Fold Increase Over Vehicle Control or Percent Reduction Compared to Vehicle Control (%) (75 mg/kg BIDx1, 24 h): 4.14 fold | Actb* mRNA (housekeeping or reference gene), Fold Increase Over Vehicle Control or Percent Reduction Compared to Vehicle Control (%) (75 mg/kg BIDx1, 48 h): 1.07 fold or % | B2m* mRNA (housekeeping or reference gene), Fold Increase Over Vehicle Control or Percent Reduction Compared to Vehicle Control (%) (75 mg/kg BIDx1, 48 h): 1.27 fold or % | Gapdh* mRNA (housekeeping or reference gene), Fold Increase Over Vehicle Control or Percent Reduction Compared to Vehicle Control (%) (75 mg/kg BIDx1, 48 h): 34.54 fold or % | Gusb* mRNA (housekeeping or reference gene), Fold Increase Over Vehicle Control or Percent Reduction Compared to Vehicle Control (%) (75 mg/kg BIDx1, 48 h): 1.31 fold or % | Hsp90ab1* mRNA (housekeeping or reference gene), Fold Increase Over Vehicle Control or Percent Reduction Compared to Vehicle Control (%) (75 mg/kg BIDx1, 48 h): 12.45 fold or % | MGDC* (housekeeping or reference gene), Fold Increase Over Vehicle Control or Percent Reduction Compared to Vehicle Control (%) (75 mg/kg BIDx1, 48 h): 1.78 fold or % | Trp63 mRNA, Fold Increase Over Vehicle Control or Percent Reduction Compared to Vehicle Control (%) (75 mg/kg BIDx1, 48 h): 2.65 fold or % | Trp73 mRNA, Fold Increase Over Vehicle Control or Percent Reduction Compared to Vehicle Control (%) (75 mg/kg BIDx1, 48 h): 3.40 fold or % | Wt1 mRNA, Fold Increase Over Vehicle Control or Percent Reduction Compared to Vehicle Control (%) (75 mg/kg BIDx1, 48 h): 21.51 fold or % | Zmat3 mRNA, Fold Increase Over Vehicle Control or Percent Reduction Compared to Vehicle Control (%) (75 mg/kg BIDx1, 48 h): 1.02 fold or % | Actb* mRNA (housekeeping or reference gene), Fold Increase Over Vehicle Control or Percent Reduction Compared to Vehicle Control (%) (75 mg/kg BIDx1, 72 h): 1.06 fold or % | B2m* mRNA (housekeeping or reference gene), Fold Increase Over Vehicle Control or Percent Reduction Compared to Vehicle Control (%) (75 mg/kg BIDx1, 72 h): 1.11 fold or % | Gapdh* mRNA (housekeeping or reference gene), Fold Increase Over Vehicle Control or Percent Reduction Compared to Vehicle Control (%) (75 mg/kg BIDx1, 72 h): 14.41 fold or % | Gusb* mRNA (housekeeping or reference gene), Fold Increase Over Vehicle Control or Percent Reduction Compared to Vehicle Control (%) (75 mg/kg BIDx1, 72 h): 1.11 fold or % | Hsp90ab1* mRNA (housekeeping or reference gene), Fold Increase Over Vehicle Control or Percent Reduction Compared to Vehicle Control (%) (75 mg/kg BIDx1, 72 h): 7.83 fold or % | MGDC* (housekeeping or reference gene), Fold Increase Over Vehicle Control or Percent Reduction Compared to Vehicle Control (%) (75 mg/kg BIDx1, 72 h): 1.36 fold or % | Trp63 mRNA, Fold Increase Over Vehicle Control or Percent Reduction Compared to Vehicle Control (%) (75 mg/kg BIDx1, 72 h): 1.62 fold or % | Trp73 mRNA, Fold Increase Over Vehicle Control or Percent Reduction Compared to Vehicle Control (%) (75 mg/kg BIDx1, 72 h): 1.00 fold or %
